Assay results: patent US7482360B2, “Fused tetracyclic mGluR1 antagonists as therapeutic agents” (Schering Corporation, priority 2005, dated 2009)
Like-named read-outs stand apart in the source and are kept apart here.

Biological target: T1, hmGluR1 receptor (Homo sapiens, UniProt Q13255)
T1 construct: expressed in transfected cells; host or cells: CHO
Experiment: IC50 Determination: intracellular calcium mobilization (FLIPR) in a CHO cell line stably expressing hmGluR1 receptor, against Quisqualate
Format: cell-based
Conditions: CHO cells expressing hmGluR1, against Quisqualate 1 μM (EC80), compounds added 10 minutes before agonist
Procedure: A CHO cell line stably expressing hmGluR1 receptor was established. One day prior to assay, cells were split in growth media at concentration of 50,000 cells/well in a volume of 100 μl and seeded into black clear-bottom 96-well plates. After two to six hours, when cells were well attached to the plate, growth medium was replaced with assay medium (100 μL) consisting of DMEM high glucose, supplemented with GPT (1 U/mL) and sodium pyruvate, 1 mM. Following overnight incubation, medium was discarded and cells were loaded for 2 hours with dye from the Calcium 3 Assay Reagent Kit (Molecular Devices, # R8033), prepared according to manufacturers' instructions. A 96-tip pipettor/fluorometric imaging plate reader (FLIPR 384; Molecular Devices) was used and intracellular calcium mobilization was measured by increases in fluorescence upon agonist Quisqualate stimulation following 6 sec-baseline measurement. Test compounds were added 10 minutes before Quisqualate. IC50 determinations for tested compounds were generated against Quisqualate 1 μM corresponding to EC80 value in a standard dose response curve.

T1 sequence (Q13255 19-1194): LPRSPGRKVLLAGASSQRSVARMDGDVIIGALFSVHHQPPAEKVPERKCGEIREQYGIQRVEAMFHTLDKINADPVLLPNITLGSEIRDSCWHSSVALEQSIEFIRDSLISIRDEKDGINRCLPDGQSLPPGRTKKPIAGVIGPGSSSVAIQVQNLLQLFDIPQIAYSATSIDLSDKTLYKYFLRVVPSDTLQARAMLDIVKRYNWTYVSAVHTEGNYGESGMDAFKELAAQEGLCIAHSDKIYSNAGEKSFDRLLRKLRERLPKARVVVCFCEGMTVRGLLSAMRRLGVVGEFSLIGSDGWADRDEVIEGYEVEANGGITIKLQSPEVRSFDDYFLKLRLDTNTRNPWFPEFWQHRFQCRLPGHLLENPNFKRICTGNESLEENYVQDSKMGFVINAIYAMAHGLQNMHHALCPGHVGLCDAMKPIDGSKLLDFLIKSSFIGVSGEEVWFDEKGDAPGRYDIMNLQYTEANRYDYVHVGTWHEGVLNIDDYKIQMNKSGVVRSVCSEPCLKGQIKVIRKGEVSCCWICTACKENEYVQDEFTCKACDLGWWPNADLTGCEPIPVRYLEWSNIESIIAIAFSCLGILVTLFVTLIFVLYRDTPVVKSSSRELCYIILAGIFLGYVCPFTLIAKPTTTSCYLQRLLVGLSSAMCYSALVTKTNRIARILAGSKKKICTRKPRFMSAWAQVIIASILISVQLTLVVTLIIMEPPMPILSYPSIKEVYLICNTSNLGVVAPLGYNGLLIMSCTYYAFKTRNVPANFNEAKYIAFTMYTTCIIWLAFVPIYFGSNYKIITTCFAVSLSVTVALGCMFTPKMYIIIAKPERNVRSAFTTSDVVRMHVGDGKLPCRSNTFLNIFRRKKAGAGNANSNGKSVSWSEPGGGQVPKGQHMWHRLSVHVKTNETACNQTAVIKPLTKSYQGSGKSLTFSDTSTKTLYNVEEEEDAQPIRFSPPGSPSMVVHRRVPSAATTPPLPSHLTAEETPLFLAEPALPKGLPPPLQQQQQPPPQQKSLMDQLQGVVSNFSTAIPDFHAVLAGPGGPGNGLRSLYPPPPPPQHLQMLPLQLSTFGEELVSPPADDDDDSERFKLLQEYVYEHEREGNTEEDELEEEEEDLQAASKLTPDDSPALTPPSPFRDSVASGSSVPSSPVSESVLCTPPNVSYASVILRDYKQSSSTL

| IC50 (read-out: mGluR1 IC50 rating) [nM] | IC50 (read-out: mGluR1 IC50) [nM] | Structure (SMILES) |
| --- | --- | --- |
| < 20 | 2.9 | O=c1c2sc3ncc4c(c3c2ncn1-c1ccc(Cl)cc1)NCCO4 [Compound 38a] |
| < 20 | 1.4 | C[C@@H]1CNc2c(cnc3sc4c(=O)n(-c5ccc(Cl)cc5)cnc4c23)O1 [Compound 38b] |
| < 20 | 2.2 | C[C@H]1CNc2c(cnc3sc4c(=O)n(-c5ccc(Cl)cc5)cnc4c23)O1 [Compound 38c] |
| 20 to 100 |  | C[C@@H]1COc2cnc3sc4c(=O)n(-c5ccc(Cl)cc5)cnc4c3c2N1 [Compound 38d] |
| < 20 | 12 | C[C@H]1COc2cnc3sc4c(=O)n(-c5ccc(Cl)cc5)cnc4c3c2N1 [Compound 38e] |
| < 20 | 5.7 | Cc1ccc(-n2cnc3c(sc4ncc5c(c43)N(C)CCO5)c2=O)cc1 [Compound 38f] |
| < 20 | 5.3 | Cc1ccc(-n2cnc3c(sc4ncc5c(c43)NC[C@@H](C)O5)c2=O)cc1 [Compound 38g] |
| < 20 | 2.2 | Cc1ccc(-n2cnc3c(sc4ncc5c(c43)NCCO5)c2=O)cc1 [Compound 38h] |
| < 20 | 2.5 | COc1ccc(-n2cnc3c(sc4ncc5c(c43)NCCO5)c2=O)cc1 [Compound 38i] |

The next lines start with the compound.

| Structure (SMILES) | IC50 (read-out: mGluR1 IC50 rating) [nM] | IC50 (read-out: mGluR1 IC50) [nM] |
| --- | --- | --- |
| Cn1ncc2cnc3sc4c(=O)n(C5CCCCC5)cnc4c3c21 [Compound 4] | 100 to 1000 |  |
| Cn1ccc2cnc3sc4c(=O)n(C5CCCCC5)cnc4c3c21 [Compound 6] | 20 to 100 |  |
| Cn1cnc2cnc3sc4c(=O)n(C5CCCCC5)cnc4c3c21 [Compound 9] | 20 to 100 |  |
| O=c1c2sc3ncc4nc[nH]c4c3c2ncn1C1CCCCC1 [Compound 12] | 20 to 100 | 23 |
| O=c1c2sc3ncc4nn[nH]c4c3c2ncn1C1CCCCC1 [Compound 13] | 100 to 1000 |  |
| O=c1c2sc3ncc4cn[nH]c4c3c2ncn1-c1ccc(Cl)cc1 [Compound 20a] | 20 to 100 | 38 |
| Cc1ccc(-n2cnc3c(sc4ncc5cn[nH]c5c43)c2=O)cc1 [Compound 20b] | < 20 | 17 |
| Cc1ccc(-n2cnc3c(sc4ncc5c(c43)OCC5)c2=O)cc1 [Compound 24] | 100 to 1000 |  |
| Cc1ccc(-n2cnc3c(sc4ncc5cc[nH]c5c43)c2=O)cc1 [Compound 27a] | < 20 | 0.7 |
| COc1ccc(-n2cnc3c(sc4ncc5cc[nH]c5c43)c2=O)cc1 [Compound 27b] | < 20 | 4.9 |
| Cc1ccc(-n2cnc3c(sc4ncc5sc(=S)[nH]c5c43)c2=O)cc1 [Compound 28] | 100 to 1000 |  |
| CSc1nc2c(cnc3sc4c(=O)n(-c5ccc(C)cc5)cnc4c32)s1 [Compound 29] | 100 to 1000 |  |
| Cc1ccc(-n2cnc3c(sc4ncc5sc(=O)[nH]c5c43)c2=O)cc1 [Compound 30] | 100 to 1000 |  |
| Cc1ccc(-n2cnc3c(sc4ncc5ccn(C)c5c43)c2=O)cc1 [Compound 31] | 20 to 100 |  |
| O=c1c2sc3ncc4cc[nH]c4c3c2ncn1-c1ccc(Cl)cc1 [Compound 34] | < 20 | 0.4 |
| O=c1c2sc3ncc4nc[nH]c4c3c2ncn1-c1ccc(Cl)cc1 [Compound 35] | < 20 | 6 |
| Cn1cnc2cnc3sc4c(=O)n(-c5ccc(Cl)cc5)cnc4c3c21 [Compound 36] | < 20 | 9.8 |
| O=c1c2sc3ncc(Br)c(NCCO)c3c2ncn1-c1ccc(Cl)cc1 [Compound 37a] | < 20 | 14.2 |
| C[C@@H](O)CNc1c(Br)cnc2sc3c(=O)n(-c4ccc(Cl)cc4)cnc3c12 [Compound 37b] | > 1000 |  |
| C[C@H](O)CNc1c(Br)cnc2sc3c(=O)n(-c4ccc(Cl)cc4)cnc3c12 [Compound 37c] | > 1000 |  |
| C[C@H](CO)Nc1c(Br)cnc2sc3c(=O)n(-c4ccc(Cl)cc4)cnc3c12 [Compound 37d] | > 1000 |  |
| C[C@@H](CO)Nc1c(Br)cnc2sc3c(=O)n(-c4ccc(Cl)cc4)cnc3c12 [Compound 37e] | > 1000 |  |
| Cc1ccc(-n2cnc3c(sc4ncc(Br)c(N(C)CCO)c43)c2=O)cc1 [Compound 37f] | 100 to 1000 |  |
